The text below walks through data of article PMC5218480 (PLoS ONE, 2017).

The test system of this test is MV-4-11 cells. Put plainly: Gene expression microarray analysis (Affymetrix PrimeView) and GSEA. The following applies: ProbeSet 11717523_x_at; LIST B. It is filed as cell-based, human.

Take `Nc1ccc(-c2cccs2)cc1NC(=O)c1ccc2c(c1)cc(C1CC1)n2CCN1CCOCC1` [ACY-1035]: the “RFU, TMEM50B” value is 85.32 RFU.
